The subject of one test is 20-HETE synthase originated from rat kidney microsome. The test can be described thus: Inhibitory effect of 20-HETE synthase originated from rat kidney microsome. Type of test: biochemical. The following applies: 1 μM of subject compound; 20-HETE production without compound set to 100%; rat kidney microsome. As for the experimental part: Experimental Example [Inhibitory effect of 20-HETE synthase originated from rat kidney microsome]
Regarding the compounds listed in Table 1, their inhibitory activity to production of 20-HETE was examined.
The subject compound for this examination was added to a buffer comprising 50 mM of 3-morpholinopropane sulfonic acid (pH7.4), 5 mM of magnesium chloride and 1 mM of ethylenediaminetetraacetic acid (EDTA) disodium salt.
After that, the rat kidney microsome (microsome fraction prepared from the kidney of a spontaneous hypertension rat (male, 6 weeks of age)) as an enzyme, [5,6,8,9,11,12,14,15] tritium-arachidonic acid (supplied by Amasham) as a substrate, and NADPH (supplied by Sigma) as a coenzyme were added and reacted for 1.5 hours at 37° C.
After the reaction, formic acid was added to stop the reaction, and then acetonitrile (final concentration of 50%) was added and left for 1.5 hours at room temperature.
The activity of 20-HETE synthase was measured by using a high performance liquid chromatograph having a detector for radioactive substances (supplied by Gilson), and equipped with a C18 reversed phase column (Biocyl C18, supplied by Bio-rad).
As for `COc1ccc(N/C=N/O)c(OC)c1` [Comp. 198], the “Inhibition rate (1 μM)” value was determined as 81.8.
The same measure, in the same setting: next, `COC(=O)c1ccc(N/C=N/O)c(C)c1` [Comp. 199]: 85.6; `COC(=O)c1cc(I)ccc1N/C=N/O` [Comp. 201]: 70.1; `O/N=C/Nc1c(F)cc(Br)cc1Br` [Comp. 210]: 78.
Same read-out and setting: next, `Cc1ccc(CO)cc1N/C=N/O` [Comp. 214]: 31.9; `O/N=C/Nc1c(F)c(F)c(F)c(F)c1F` [Comp. 215]: 36.1.
The same measure, in the same setting: the figure for `O=[N+]([O-])c1ccc(Sc2ccc(N/C=N/O)cc2)cc1` [Comp. 223] is 52.2; for `O/N=C/Nc1ccc(SC(F)(F)F)cc1` [Comp. 224] it is 47.1; for `COc1ccc(/C=C/c2ccc(N/C=N/O)cc2)cc1` [Comp. 228] it is 72.0.
As for `O/N=C/Nc1cccc2ccccc12` [Comp. 242], the “Inhibition rate (1 μM)” value is listed as 50.6.
Same read-out and setting: the figure for `Cc1cc(N/C=N/O)ccc1N1C(=O)c2ccc(Cl)cc2C1=O` [Comp. 244] is 32.7; for `CCC1(c2ccc(N/C=N/O)cc2)CCC(=O)NC1=O` (centres unmarked) [Comp. 245] it is 55.4.
On the same count and under the same terms, next, `CNS(=O)(=O)Cc1ccc(N/C=N/O)cc1` [Comp. 259]: 52.8; `O/N=C/Nc1ccc2c(c1)Cc1cc(Br)ccc1-2` [Comp. 274]: 94.5; `COc1cc2c(cc1N/C=N/O)oc1ccccc12` [Comp. 277]: 76.4.
Same read-out and setting: the figure for `O=C(Nc1ccccc1)c1ccccc1N/C=N/O` [Comp. 278] is 65.3.
As to `Cc1cc(C(C#N)c2ccc(Cl)cc2)c(Cl)cc1N/C=N/O` (centres unmarked) [Comp. 279], the “Inhibition rate (1 μM)” value was found to be 42.8.
Still for that read-out and setting: the figure for `CCCCN(CCCC)CCCOC(=O)c1ccc(N/C=N/O)cc1` [Comp. 281] is 50.9.
On the same count and under the same terms, next, `CN(C)c1ccc(/C=C/c2ccc(N/C=N/O)cc2)cc1` [Comp. 282]: 122.9; `N#CC(c1ccccc1)c1ccc(N/C=N/O)cc1` (centres unmarked) [Comp. 283]: 62.6.
Consider `Cc1ccc2cc(N/C=N/O)ccc2n1` [Comp. 295], for which the “Inhibition rate (1 μM)” value was 73.8.
The same measure, in the same setting: the figure for `O/N=C/Nc1ccc2ncccc2c1` [Comp. 297] is 71.1.
Same read-out and setting: next, `CC(=O)N(C)c1ccc(N/C=N/O)cc1` [Comp. 301]: 62.1; `O=c1ccc2cc(N/C=N/O)ccc2o1` [Comp. 304]: 68.5; `O=S(=O)(CCSc1ccccc1N/C=N/O)c1ccc(Cl)cc1` [Comp. 315]: 50.7.
Same read-out and setting: next, `CCCCCCCCOc1ccc(N/C=N/O)cc1` [Comp. 322]: 117.5.
In the case of `CCC(C)CCOc1ccc(N/C=N/O)cc1` (centres unmarked) [Comp. 326], the “Inhibition rate (1 μM)” value was determined as 110.8.
On the same count and under the same terms, the figure for `CC(C)CCCOc1ccc(N/C=N/O)cc1` [Comp. 327] is 110.1.
Same read-out and setting: next, `CC(C)CCOc1ccc(N/C=N/O)cc1` [Comp. 328]: 121.4; `CCN(CC)CCOc1ccc(N/C=N/O)cc1` [Comp. 351]: 89; `O/N=C/Nc1ccc(OCCN2CCCCC2)cc1` [Comp. 357]: 98.

Staying with this test, now noted: 1 μM of the subject compound added; 20-HETE production without compound set to 100%; rat kidney microsome.
As for `Cc1ccc(N/C=N/O)c(C)c1` [Comp. 22], the “Inhibition rate (1 μM)” value is on record as 95.7.
Same read-out and setting: next, `O/N=C/Nc1ccc(Br)cc1Cl` [Comp. 35]: 95.4.
The same measure, in the same setting: the figure for `Cc1ccc(C(C)C)cc1N/C=N/O` [Comp. 57] is 59.1; for `COc1ccccc1N/C=N/O` [Comp. 59] it is 49.0; for `Cc1cccc(N/C=N/O)c1` [Comp. 62] it is 69.5.
Turning to `Cc1cccc(N/C=N/O)c1C` [Comp. 63], the “Inhibition rate (1 μM)” value came to 49.3.
Still for that read-out and setting: next, `COc1cccc(N/C=N/O)c1` [Comp. 65]: 59.3; `CCOc1cccc(N/C=N/O)c1` [Comp. 66]: 41.2; `Cc1c(Cl)cccc1N/C=N/O` [Comp. 67]: 48.4.
Still for that read-out and setting: next, `O/N=C/Nc1ccc(F)cc1Cl` [Comp. 69]: 58.7; `CCCCCCCCc1ccc(N/C=N/O)cc1` [Comp. 70]: 32.9; `CCCc1ccccc1N/C=N/O` [Comp. 71]: 42.5.
The same measure, in the same setting: the figure for `O/N=C/Nc1ccc(I)cc1Cl` [Comp. 73] is 99.9; for `Cc1cc(Br)cc(C)c1N/C=N/O` [Comp. 74] it is 43.7.
In the case of `O/N=C/Nc1ccccc1Br` [Comp. 75], the “Inhibition rate (1 μM)” value is 46.9.
On the same count and under the same terms, next, `COc1cc(N/C=N/O)cc(OC)c1` [Comp. 76]: 35.1.
For `O/N=C/Nc1ccc(Br)cc1C(F)(F)F` [Comp. 77], the “Inhibition rate (1 μM)” value was found to be 49.0.
Still for that read-out and setting: next, `COc1ccc(N/C=N/O)cc1OC` [Comp. 78]: 36.3.
Same read-out and setting: the figure for `O/N=C/Nc1ccccc1F` [Comp. 79] is 35.3.
The same measure, in the same setting: the figure for `O/N=C/Nc1cc(C(F)(F)F)ccc1Cl` [Comp. 80] is 37.2; for `O/N=C/Nc1cccc(Cl)c1Cl` [Comp. 81] it is 51.3.
`Cc1ccc(N/C=N/O)cc1Cl` [Comp. 86]: the “Inhibition rate (1 μM)” value is listed as 58.7.
The same measure, in the same setting: next, `COc1ccc(C(F)(F)F)cc1N/C=N/O` [Comp. 90]: 36.5; `O/N=C/Nc1cccc(I)c1` [Comp. 91]: 36.6.
The same measure, in the same setting: next, `CCOc1ccc(N/C=N/O)c([N+](=O)[O-])c1` [Comp. 94]: 41.2; `Cc1cc(C)c(N/C=N/O)c([N+](=O)[O-])c1` [Comp. 95]: 44.5; `COc1ccc(N/C=N/O)cc1F` [Comp. 98]: 43.9.
Still for that read-out and setting: next, `COc1cccc(N/C=N/O)c1OC` [Comp. 99]: 40.8; `COc1ccc(N/C=N/O)cc1Cl` [Comp. 101]: 52.4.
For `O/N=C/Nc1c(Br)cc(C2CCCCC2)cc1Br` [Comp. 102], the “Inhibition rate (1 μM)” value was found to be 44.4.
Same read-out and setting: next, `COc1ccc(C)c(N/C=N/O)c1` [Comp. 104]: 31.9.
Still for that read-out and setting: next, `O/N=C/Nc1ccc(C(O)(C(F)(F)F)C(F)(F)F)cc1` [Comp. 105]: 46.7; `COc1cc(OC)c(N/C=N/O)cc1Cl` [Comp. 108]: 36.4.
Still for that read-out and setting: the figure for `N#Cc1ccc(N/C=N/O)cc1` [Comp. 112] is 37.4; for `O/N=C/Nc1ccc(Cl)cc1Br` [Comp. 117] it is 71.6; for `COC(=O)c1ccc(N/C=N/O)cc1` [Comp. 123, N-(4-methoxycarbonylphenyl)-N′-hydroxyformamidine] it is 92.7.
`O/N=C/Nc1ccccc1` [Comp. 135]: the “Inhibition rate (1 μM)” value was determined as 49.3.
In the case of `O=C(OC/C=C/c1ccccc1)c1ccccc1N/C=N/O` [Comp. 138], the “Inhibition rate (1 μM)” value stood at 44.0.
As for `CCc1cccc(C)c1N/C=N/O` [Comp. 139], the “Inhibition rate (1 μM)” value was found to be 69.7.
Still for that read-out and setting: the figure for `Cc1ccc(N/C=N/O)c([N+](=O)[O-])c1` [Comp. 143] is 37.3; for `CSCc1cccc(C(F)(F)F)c1N/C=N/O` [Comp. 149] it is 36.5.
The same measure, in the same setting: next, `CC(=O)Nc1ccc(N/C=N/O)cc1C(F)(F)F` [Comp. 150]: 34.1; `O/N=C/Nc1ccc(OC(F)F)cc1` [Comp. 151]: 108.2.
Regarding `O/N=C/Nc1ccccc1OC(F)F` [Comp. 153], the “Inhibition rate (1 μM)” value was 39.4.
Same read-out and setting: the figure for `COc1ccc(Oc2ccc(C(F)(F)F)cc2N/C=N/O)cc1` [Comp. 156] is 39.4; for `CCCCCCCCCCc1ccc(N/C=N/O)cc1` [Comp. 157] it is 121.4; for `CSc1cccc(N/C=N/O)c1` [Comp. 162] it is 62.6.
Still for that read-out and setting: next, `CCc1cccc(C(C)C)c1N/C=N/O` [Comp. 163]: 40.0; `Cc1ccc(N/C=N/O)c(F)c1` [Comp. 165]: 105.7.
For `Cc1ccc(N/C=N/O)c(CO)c1` [Comp. 171], the “Inhibition rate (1 μM)” value was found to be 54.1.
Still for that read-out and setting: the figure for `CC(C)(C)c1cccc(N/C=N/O)c1` [Comp. 175] is 69.9; for `CCCc1cccc(N/C=N/O)c1` [Comp. 179] it is 63.5; for `CCOC(=O)c1ccc(N/C=N/O)cc1` [Comp. 183] it is 92.0.
On the same count and under the same terms, next, `CC(C)OC(=O)c1ccc(N/C=N/O)cc1` [Comp. 188]: 59.1; `CC(C)COC(=O)c1ccc(N/C=N/O)cc1` [Comp. 189]: 116.8; `COC(=O)c1ccc(OC)c(N/C=N/O)c1` [Comp. 190]: 44.9.
The same measure, in the same setting: the figure for `COc1cc(C#N)c(N/C=N/O)cc1OC` [Comp. 196] is 46.9.

The same test, now with this note: concentration at which production of 20-HETE was inhibited to 50%; rat kidney microsome.
One may read the IC50 as the concentration that inhibits the measured activity by half. A high value points to weaker potency. The compound `O/N=C/Nc1ccc(Br)cc1Cl` [Comp. 35] came in with an IC50 of 86.5 nM.

(Values after US7078400B2, “20-HETE synthase inhibitor” (Taisho Pharmaceutical Co., Ltd., priority 1999, dated 2006).)
